{"source": "paper PMC12679550", "about": "(ACS Chemical Neuroscience, 2025)", "key": {"α1AR": {"molecular_target": "T1, α1AR (Homo sapiens, UniProt P35348)", "T1 sequence (P35348 1-466)": "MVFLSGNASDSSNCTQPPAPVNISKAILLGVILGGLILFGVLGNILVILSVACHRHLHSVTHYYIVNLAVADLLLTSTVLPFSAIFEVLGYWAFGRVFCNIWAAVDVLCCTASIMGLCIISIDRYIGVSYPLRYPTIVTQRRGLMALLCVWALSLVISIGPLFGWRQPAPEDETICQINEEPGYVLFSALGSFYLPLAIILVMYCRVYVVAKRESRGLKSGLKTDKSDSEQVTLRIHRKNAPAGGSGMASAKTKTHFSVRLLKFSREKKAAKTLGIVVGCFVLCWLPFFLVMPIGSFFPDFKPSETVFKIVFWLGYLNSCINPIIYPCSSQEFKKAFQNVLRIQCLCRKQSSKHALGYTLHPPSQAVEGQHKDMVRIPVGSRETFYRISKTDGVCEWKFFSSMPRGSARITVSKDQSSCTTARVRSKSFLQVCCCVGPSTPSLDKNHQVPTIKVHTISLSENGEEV"}, "[1]": {"tested_on": "pERK in nontransfected HEK293 cells", "assay": "ERK phosphorylation in nontransfected, knockout and antagonist-cotreated HEK293 cells", "type": "cell-based, human", "method": "Cells were serum-starved for 75 min and treated with ligands in 1 mL of fresh DMEM in the absence of serum as described in the figure legends. Cells were washed three times with ice-cold phosphate-buffered saline, lysed on ice in Radio-Immunoprecipitation Assay buffer, centrifuged to clarify the supernatant, normalized to protein concentration, and boiled in Laemmli sample buffer. Following sodium dodecyl sulfate–polyacrylamide gel electrophoresis, gels were transferred, blocked in 5% BSA and incubated with 1:1000 rabbit phospho-ERK1/2 (#9101, Cell Signaling Technology, Danvers, MA) and imaged with enhanced chemiluminescence (ECL). Blots were stripped and reprobed with rabbit ERK1/2 (#9102, Cell Signaling Technology) antibody and imaged with ECL to assess protein loading."}, "rat α2AR": {"molecular_target": "T2, rat α2AR (Rattus norvegicus, UniProt P22909)", "T2 sequence (P22909 1-465)": "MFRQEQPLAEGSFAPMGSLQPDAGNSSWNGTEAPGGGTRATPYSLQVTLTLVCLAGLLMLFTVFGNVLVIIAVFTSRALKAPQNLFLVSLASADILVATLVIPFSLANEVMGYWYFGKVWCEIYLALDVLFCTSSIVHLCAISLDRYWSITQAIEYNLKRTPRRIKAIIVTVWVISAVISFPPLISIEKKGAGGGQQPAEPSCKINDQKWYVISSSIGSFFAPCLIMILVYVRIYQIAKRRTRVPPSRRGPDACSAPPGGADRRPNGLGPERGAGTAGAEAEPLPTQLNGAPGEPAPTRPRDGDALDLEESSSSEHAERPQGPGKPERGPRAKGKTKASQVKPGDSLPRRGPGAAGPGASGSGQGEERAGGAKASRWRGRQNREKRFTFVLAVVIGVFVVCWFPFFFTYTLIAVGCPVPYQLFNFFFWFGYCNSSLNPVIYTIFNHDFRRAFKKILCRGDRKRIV", "conditions": "agonist mode; CHO-K1 cells"}, "human α2BRs": {"molecular_target": "human α2BRs (Homo sapiens, UniProt P18089)", "sequence (P18089 whole entry)": "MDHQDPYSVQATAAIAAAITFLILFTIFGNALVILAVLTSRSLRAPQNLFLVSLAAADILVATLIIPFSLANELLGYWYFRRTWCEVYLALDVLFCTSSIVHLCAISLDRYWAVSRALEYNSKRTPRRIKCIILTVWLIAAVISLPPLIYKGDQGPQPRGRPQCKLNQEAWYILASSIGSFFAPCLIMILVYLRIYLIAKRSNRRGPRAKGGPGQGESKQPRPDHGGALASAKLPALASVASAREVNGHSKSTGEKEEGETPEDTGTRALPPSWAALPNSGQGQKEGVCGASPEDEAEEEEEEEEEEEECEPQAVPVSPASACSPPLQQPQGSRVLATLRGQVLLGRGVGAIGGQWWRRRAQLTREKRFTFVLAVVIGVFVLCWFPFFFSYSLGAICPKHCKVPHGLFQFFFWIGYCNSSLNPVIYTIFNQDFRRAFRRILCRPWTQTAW", "conditions": "10 μM screen"}}, "note": "Read-outs that look alike come from different tables or passages of the source.", "data": [{"substance": "mitragynine", "values": [{"measurement": "EC50", "setting": "α1AR; read-out: EC50, α11, α1AR-Gα11", "value": 3.16, "unit": "µM"}, {"measurement": "EC50", "setting": "α1AR; read-out: EC50 at α1AR-Gα11 (abstract), partial agonist", "value": "~3", "unit": "µM"}, {"measurement": "Emax as percent of clonidine's maximum response, α11", "setting": "α1AR; α1AR-Gα11", "value": 27, "unit": "%"}, {"measurement": "EC50, αq", "setting": "α1AR; α1AR-Gαq", "value": "inactive"}, {"measurement": "pERK-stimulating effect in Gαq/11 knockout HEK293 cells", "setting": "[1]; 1 μM, 5 min, vs CRISPR scrambled", "value": "abolished"}, {"measurement": "pERK-stimulating effect with 100 nM atipamezole cotreatment", "setting": "[1]; HEK293", "value": "did not affect"}, {"measurement": "pERK-stimulating effect with 100 nM prazosin cotreatment", "setting": "[1]; HEK293, CLON and ISO 1 μM, mitragynine 1 μM", "value": "abolished"}, {"measurement": "Effect on forskolin-stimulated cAMP, rat α2AR", "setting": "rat α2AR", "value": "did not decrease forskolin-stimulated cAMP accumulation"}, {"measurement": "Activation of Gαi/o subtypes coupled to α2BRs", "setting": "human α2BRs", "value": "no significant activity"}]}]}
